Assay results as given in ChEMBL document CHEMBL3792297, “Studies on phenothiazines: New microtubule-interacting compounds with phenothiazine A-ring as potent antineoplastic agents” (Bioorg Med Chem, 2016).

Tests used:
[1] = Growth inhibition of human UO31 cells at 10 uM after 48 hrs by SRB assay relative to control; assay type: functional; settings: UO-31, 48 h, read-out: GI
[2] = tested on: MDA-MB-468; assay: Growth inhibition of human MDA-MB-468 cells at 10 uM after 48 hrs by SRB assay relative to control; assay type: functional; settings: MDA-MB-468, 48 h, read-out: GI
[3] = Growth inhibition of human UACC62 cells at 10 uM after 48 hrs by SRB assay relative to control; assay type: functional; settings: UACC-62, 48 h, read-out: GI
[4] = Growth inhibition of human PC3 cells at 10 uM after 48 hrs by SRB assay relative to control; assay type: functional; settings: PC-3, 48 h, read-out: GI
[5] = tested on: CCRF-CEM; assay: Growth inhibition of human CCRF-CEM cells at 10 uM after 48 hrs by SRB assay relative to control; assay type: functional; settings: read-out: GI
[6] = Growth inhibition of human SF268 cells at 10 uM after 48 hrs by SRB assay relative to control; assay type: functional; settings: SF-268, 48 h, read-out: GI
[7] = Growth inhibition of human MOLT4 cells at 10 uM after 48 hrs by SRB assay relative to control; assay type: functional; settings: MOLT-4, 48 h, read-out: GI
[8] = tested on: NCI-H23; assay: Growth inhibition of human NCI-H23 cells at 10 uM after 48 hrs by SRB assay relative to control; assay type: functional; settings: NCI-H23, 48 h, read-out: GI
[9] = organism: Ovis aries; assay: Inhibition of sheep brain tubulin polymerization at 100 uM by DAPI staining-based fluorimetric method
[10] = Growth inhibition of human IGROV1 cells at 10 uM after 48 hrs by SRB assay relative to control; assay type: functional; settings: IGROV-1, 48 h, read-out: GI
[11] = tested on: MCF7; assay: Growth inhibition of human MCF7 cells at 10 uM after 48 hrs by SRB assay relative to control; assay type: functional; settings: MCF7, 48 h, read-out: GI
[12] = tested on: KM12; assay: Growth inhibition of human KM12 cells at 10 uM after 48 hrs by SRB assay relative to control; assay type: functional; settings: KM12, 48 h, read-out: GI
[13] = Growth inhibition of human HCT116 cells at 10 uM after 48 hrs by SRB assay relative to control; assay type: functional; settings: HCT-116, 48 h, read-out: GI
[14] = Growth inhibition of human HOP62 cells at 10 uM after 48 hrs by SRB assay relative to control; assay type: functional; settings: HOP-62, 48 h, read-out: GI
[15] = Growth inhibition of human TK10 cells at 10 uM after 48 hrs by SRB assay relative to control; assay type: functional; settings: TK-10, 48 h, read-out: GI
[16] = Growth inhibition of human OVCAR8 cells at 10 uM after 48 hrs by SRB assay relative to control; assay type: functional; settings: OVCAR-8, 48 h, read-out: GI
[17] = Growth inhibition of human NCI-ADR-RES cells at 10 uM after 48 hrs by SRB assay relative to control; assay type: functional; settings: read-out: GI
[18] = Growth inhibition of human SNB19 cells at 10 uM after 48 hrs by SRB assay relative to control; assay type: functional; settings: SNB-19, 48 h, read-out: GI
[19] = Growth inhibition of human RPMI8226 cells at 10 uM after 48 hrs by SRB assay relative to control; assay type: functional; settings: RPMI-8226, 48 h, read-out: GI
[20] = Growth inhibition of human HL-60(TB) cells at 10 uM after 48 hrs by SRB assay relative to control; assay type: functional; settings: HL-60, 48 h, read-out: GI
[21] = Growth inhibition of human HCT15 cells at 10 uM after 48 hrs by SRB assay relative to control; assay type: functional; settings: HCT-15, 48 h, read-out: GI
[22] = tested on: NCI-H226; assay: Growth inhibition of human NCI-H226 cells at 10 uM after 48 hrs by SRB assay relative to control; assay type: functional; settings: NCI-H226, 48 h, read-out: GI
[23] = Growth inhibition of human SW620 cells at 10 uM after 48 hrs by SRB assay relative to control; assay type: functional; settings: SW-620, 48 h, read-out: GI
[24] = tested on: SN12C; assay: Growth inhibition of human SN12C cells at 10 uM after 48 hrs by SRB assay relative to control; assay type: functional; settings: read-out: GI
[25] = tested on: U-251; assay: Growth inhibition of human U251 cells at 10 uM after 48 hrs by SRB assay relative to control; assay type: functional; settings: U-251, 48 h, read-out: GI
[26] = Growth inhibition of human Hs 578T cells at 10 uM after 48 hrs by SRB assay relative to control; assay type: functional; settings: read-out: GI
[27] = Growth inhibition of human HCC2998 cells at 10 uM after 48 hrs by SRB assay relative to control; assay type: functional; settings: HCC 2998, 48 h, read-out: GI
[28] = tested on: SK-MEL-2; assay: Growth inhibition of human SK-MEL-2 cells at 10 uM after 48 hrs by SRB assay relative to control; assay type: functional; settings: SK-MEL-2, 48 h, read-out: GI
[29] = Growth inhibition of human SF295 cells at 10 uM after 48 hrs by SRB assay relative to control; assay type: functional; settings: SF-295, 48 h, read-out: GI
[30] = Growth inhibition of human COLO205 cells at 10 uM after 48 hrs by SRB assay relative to control; assay type: functional; settings: COLO 205, 48 h, read-out: GI
[31] = tested on: NCI-H322M; assay: Growth inhibition of human NCI-H322M cells at 10 uM after 48 hrs by SRB assay relative to control; assay type: functional; settings: read-out: GI
[32] = Growth inhibition of human LOXIMVI cells at 10 uM after 48 hrs by SRB assay relative to control; assay type: functional; settings: LOX IMVI, read-out: GI
[33] = Growth inhibition of human UACC257 cells at 10 uM after 48 hrs by SRB assay relative to control; assay type: functional; settings: UACC-257, 48 h, read-out: GI
[34] = tested on: A549; assay: Growth inhibition of human A549 cells at 10 uM after 48 hrs by SRB assay relative to control; assay type: functional; settings: A549, 48 h, read-out: GI
[35] = tested on: SK-MEL-28; assay: Growth inhibition of human SK-MEL-28 cells at 10 uM after 48 hrs by SRB assay relative to control; assay type: functional; settings: SK-MEL-28, 48 h, read-out: GI

In the case of `O/N=C(/c1ccc2c(c1)Sc1ccccc1N2)c1c[nH]c2ccccc12`, the inhibition of growth at 10 µM [1] is reported as 41%, the inhibition of growth at 10 µM [2] is reported as 63% and the inhibition of growth at 10 µM [3] is reported as 54%. The inhibition of growth at 10 µM [4] was 72%, the inhibition of growth at 10 µM [5] was 76% and the inhibition of growth at 10 µM [6] was 44%. The inhibition of growth at 10 µM [7] was 74%, the inhibition of growth at 10 µM [8] was 24% and the inhibition [9] was 15%. It also gave an inhibition of growth at 10 µM [10] of 44%, an inhibition of growth at 10 µM [11] of 57% and an inhibition of growth at 10 µM [12] of 76%. For the same compound, the inhibition of growth at 10 µM [13] was 64%, the inhibition of growth at 10 µM [14] was 42% and the inhibition of growth at 10 µM [15] was 21%. The inhibition of growth at 10 µM [16] was 24%, the inhibition of growth at 10 µM [17] was 80% and the inhibition of growth at 10 µM [18] was 40%. It also gave an inhibition of growth at 10 µM [19] of 53%, an inhibition of growth at 10 µM [20] of 87% and an inhibition of growth at 10 µM [21] of 58%. The inhibition of growth at 10 µM [22] was 23%, the inhibition of growth at 10 µM [23] was 74% and the inhibition of growth at 10 µM [24] was 27%. For the same compound, the inhibition of growth at 10 µM [25] was 31%, the inhibition of growth at 10 µM [26] was 40% and the inhibition of growth at 10 µM [27] was 5%. For the same compound, the inhibition of growth at 10 µM [28] was 57%, the inhibition of growth at 10 µM [29] was 55% and the inhibition of growth at 10 µM [30] was 45%. It also gave an inhibition of growth at 10 µM [31] of 26%, an inhibition of growth at 10 µM [32] of 44% and an inhibition of growth at 10 µM [33] of 18%. The inhibition of growth at 10 µM [34] was 48% and the inhibition of growth at 10 µM [35] was 31%.
